According to patent US12282027B2, “High-throughput NMR approach for in-membrane protein ligand screening” (University of South Florida, priority 2021, dated 2025):

These compounds were tested against T1, A1R receptor (Homo sapiens, UniProt P30542) (assay: In-membrane WaterLOGSY NMR, 10× diluted A1R in yeast cell membrane (YCM)). Details: 10× diluted A1R in YCM from Pichia pastoris; FIG. 5, FIG. 8.
T1 construct: FLAG (N); His10 (C); TEV protease cleavage site (N); α-Factor peptide (secretion signal) (N); made in house; host or cells: Pichia pastoris
T1 sequence (P30542 1-326): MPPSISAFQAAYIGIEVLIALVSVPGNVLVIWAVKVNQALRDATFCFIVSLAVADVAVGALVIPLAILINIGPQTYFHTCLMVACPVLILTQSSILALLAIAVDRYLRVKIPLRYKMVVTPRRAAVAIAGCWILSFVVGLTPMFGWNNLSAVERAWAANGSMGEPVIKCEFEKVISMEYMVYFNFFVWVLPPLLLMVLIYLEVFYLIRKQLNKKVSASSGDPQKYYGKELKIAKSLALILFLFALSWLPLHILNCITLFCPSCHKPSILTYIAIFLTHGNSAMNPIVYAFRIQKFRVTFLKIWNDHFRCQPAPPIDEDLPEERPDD
Format: binding
Description: The human A1 receptor and A2A receptor were cloned into pPIC9K with an N-terminal Flag tag and a C-terminal His tag. […] The lysed cell pellets were centrifuged at 9,720×g for 30 min to remove all debris and keep the released membrane fraction parts.
At the end of fermentation, the cell pellets were collected after centrifugation at 4,000×g for 15 min at 4° C. and then washed once with 50 mM HEPES, pH 7.4, 100 mM NaCl buffer. The cell pellets were resuspended into Receptor Lysis Buffer (50 mM HEPES buffer, 10% glycerol, 100 mM NaCl, 2.5 mM EDTA) using the ratio of cell pellets to buffer equal to 1:4. […] The disrupted cell pellets were centrifuged at 9,720×g for 30 min at 4° C. to discard unbroken cells and cellular debris.
NMR samples for membranes typically consisted of 270-300 μL volumes of the cell membrane in 50 mM HEPES buffer, 10% glycerol, 100 mM NaCl, 2.5 mM EDTA, doped with 10% D2O and different concentration ligands prepared in DMSO as needed.
STD and WaterLOGSY experiments were conducted at a ^1H frequency of 600 MHz using Varian Inova spectrometer. 5 mm diameter NMR tubes with a sample volume of 270-300 μL were used in all experiments. Solutions were buffered using a HEPES buffer corrected to pH 7.4 and 10% glycerol. The sample preparation is exemplified as follows, the compound (solution in DMSO-d6), 30 μL D2O was added to 240 μL membrane in an Eppendorf tube. The resulting solution was spun to ensure full mixing and transferred to a 5 mm NMR tube before the run. Both STD and WaterLOGSY spectra were recorded for each sample. WaterLOGSY spectra in the absence of protein receptor were recorded.

Question: With N[C@@H](Cc1ccc(F)cc1)C(=O)O [4-Fluorophenylalanine] as the compound, how does the “WaterLOGSY NOE signal of the ligand (negative NOE = specific binding)” value (from here on “WaterLOGSY NOE signal of the ligand”) read?
Answer: The value was “positive NOEs”.

Question: For N[C@@H](Cc1ccc(O)c(F)c1)C(=O)O [3-fluorotyrosine], which “WaterLOGSY NOE signal of the ligand” value is on record?
Answer: Its value is “absence of obvious NOE signals”.

Question: How did the “WaterLOGSY NOE signal of the ligand” value turn out when CTAP was run?
Answer: The value was “absence of obvious NOE signals”.
